Results on ten molecules are retold here after paper PMC7601674, “CoQ10 Deficient Endothelial Cell Culture Model for the Investigation of CoQ10 Blood–Brain Barrier Transport” (Journal of Clinical Medicine, 2020).

Data set [1] concerns bEnd.3 cells (mouse BBB cell line) monolayer. In words: CoQ10 transport assay across bEnd.3 monolayer on Transwell filters (control or pABA treated). As to conditions: for Effect on Basal to Apical transport of CoQ10: antioxidant 50 µM co-administered with CoQ10 10 µM; for Effect on B to A transport of CoQ10: pABA treated bEnd.3, antioxidant 50 µM; for A to B CoQ10 transport, % of control / Apical to Basal CoQ10 transport, % of control: BLT-1 10 µM, FPS-ZM1 1 µM; for A to B CoQ10 transport, % of control: verapamil 0.1 mM, added 2 h before, 60 min; for Apical to Basal CoQ10 transport, % of control: RAP 0.5 µM. On the procedure:
(§1) Unless stated, CoQ10 was pre-treated by incubation in serum at a concentration of 20 µM for 45 min at 37 °C, and added to assay buffer on either the Apical (blood facing) or Basal (brain facing) side of the cells on Transwell filters. The final concentration of CoQ10 used in the assays was 10 µM in serum (50% v/v). Cells were then incubated for 60 min on an orbital shaker (100 rpm) at 37 °C. Samples of the Apical (A) and Basal (B) media were then taken for analysis to calculate A to B (blood-to-brain) or B to A (brain-to-blood) Papp in cm/s, as previously described by Patabendige et al.. CoQ10 concentrations were determined using the LC-MS/MS method described above (Section 2.2).
(§2) Inhibitors of transport were added to both Apical and Basal sides of the cells for 2 h prior to assay. Antioxidants were pre-incubated with CoQ10 in serum for 45 min prior to assay, and were present in the assay buffer. Compounds used were; SR-B1 inhibitor, blocker of lipid transport-1 (BLT-1; 10 µmol/L)
(§3) As previously described, para-aminobenzoic acid (pABA) was used as a pharmacological reagent to induce CoQ10 deficiency. The mechanism of action is via competitive inhibition of polyprenyl-4-hydroxybenzoate transferase (Coq2p), a key enzyme in the later stages of the CoQ10 biosynthetic pathway. Following the method of Duberley et al., 1 mmol/L pABA was added to culture medium for 5 days prior to assay.

Data set [2] deals with bEnd.3 BBB model. The note with it: cited from earlier work.
Details of data set [3]: method as in PMID 11259830. The note with it: cited from earlier work.
Data set [4] concerns PBEC cellular CoQ10 content. In words: Cellular CoQ10 depletion by pABA, PBEC. The data set is classed as cell-based, porcine. On the procedure:
(§4) Final CoQ10 concentrations (nmol/L) were calculated as a ratio of CoQ10/CoQ10–[^2H9] peak areas, and quantified against the corresponding calibration curve, with appropriate correction for dilution. For intracellular determination of CoQ10 the concentration was divided by total protein (mg/mL) and expressed as pmol/mg (nmol/g) of protein.

The test system of data set [5] is bEnd.3 cellular CoQ10 content. Briefly: Cellular CoQ10 depletion by pABA, bEnd.3. The data set is classed as cell-based, mouse. On the procedure:
as §4

For data set [6], the system named is bEND.3 cells. In words: MTT cell viability assay. The data set is classed as cell-based, mouse. As to conditions: pABA up to 1 mM, 5 days. The protocol: Cell viability was determined using the MTT assay described by Mosmann. Cells were passaged onto 96-well plates, grown to confluence and washed with HBSS prior to the addition of 3-[4,5-dimethylthiazol-2-yl]-2,5-diphenyl tetrazolium bromide (MTT; 1 mg/mL) in DMEM (without phenol red). Cells were then incubated for 4 h at 37 °C, 5% CO2, after which the medium was removed, and the remaining formazan crystals dissolved in propan-2-ol (100 μL/well). The resulting purple solution was spectrophotometrically measured at 540 nm using a Multiskan Ascent plate reader with Ascent software (MTX LabSystems, USA).
Background: Tetrazolium dyes change colour on reduction, which living cells bring about.

Data set [7] has as its system MRC complex I. In words: Mitochondrial respiratory chain enzyme activity, complex I. The format is cell-based, mouse. The protocol: (§5) Activities of the mitochondrial respiratory chain enzymes; complex I, complex II-III and complex IV together with the mitochondrial marker enzyme, and citrate synthase (EC 2.3.3.1) were determined spectrophotometrically on a Uvikon XL spectrophotometer with LabPower software (Version 2.06S, Northstar Scientific Ltd., Potton, UK) according to the method previously described by Hargreaves et al.. Results were expressed as a ratio to citrate synthase activity, a validated biomarker of mitochondrial content, and were normalised against mg protein. Protein quantification was determined according to the Lowry method using BSA as a standard.

The subject of data set [8] is MRC complex II-III. Briefly: Mitochondrial respiratory chain enzyme activity, complex II-III. The data set is classed as cell-based, mouse. On the procedure:
as §5

Data set [9] relates to MRC complex IV. Briefly: Mitochondrial respiratory chain enzyme activity, complex IV. The note with it: bEND.3, 1 mM pABA 5 days. The data set is classed as cell-based, mouse. The protocol:
as §5

Data set [10] has as its system citrate synthase (EC 2.3.3.1). In words: Citrate synthase activity. The format is cell-based, mouse. As to conditions: bEND.3, 1 mM pABA 5 days. On the procedure:
as §5

In data set [11] the test system is PBEC tight junction integrity. Briefly: Transendothelial electrical resistance (TEER) of PBEC monolayer. The data set is classed as cell-based, porcine. As to conditions: PBEC after 5 days pABA (1 mM); control 856 ± 71; n = 6. The protocol: (§6) Primary porcine brain endothelial cells (PBEC) were isolated and cultured as previously published. Briefly, cells were seeded at 10 × 10^4 cells/cm^2 on collagen and fibronectin-coated polycarbonate Transwell filters (Corning 0.4 µm pore size) in 12-well plates, and grown in low glucose DMEM (Sigma D5546) supplemented with bovine plasma-derived serum (10% v/v; BPDS, First Link UK), glutamine (2 mM), heparin (125 µg/mL), penicillin (100 U/mL) and streptomycin (100 µg/mL), at 37 °C in a 5% CO2 incubator. PBECs were grown in non-contact co-culture above primary rat astrocytes until confluent, then supplemented with hydrocortisone (550 nM), 8-4-chlorophenylthio-cAMP (250 µM) and RO-20-1724 (17.5 µM) in serum-free medium for a further 3 days. Before assays of CoQ10 transport, PBECs were separated from astrocytes by moving transwell filters to fresh culture plates.
as §3

The test system of data set [12] is claudin-5 tight junction protein in PBEC. In words: Confocal microscopy of claudin-5. The note with it: PBEC after 5 days pABA (1 mM). The data set is classed as cell-based, porcine. The protocol:
Cells for confocal microscopy were fixed in paraformaldehyde (4% w/v in PBS) for 45 min, washed with HBSS and stored in glycerol (70% v/v in PBS) until use. Cells were permeabilised with Triton-x 100 (0.1% v/v in PBS), incubated with anti-Claudin 5 Monoclonal Antibody (4C3C2) Alexa Fluor 488 (1 in 80 dilution in DAKO, overnight, 4 °C, Thermofisher) to visualise tight junctions. Samples were then mounted in Vectashield containing DAPI for nuclei staining. The Nikon A1 inverted confocal microscope was used with spectral detector and Eclipse Ti-E microscope at ×40 magnification to generate digital images, analysed using Fiji (ImageJ).

Data set [13] concerns primary porcine brain endothelial cells (PBEC) monolayer. In words: CoQ10 transport assay across PBEC monolayer on Transwell filters. As to conditions: PBEC; RAP 0.5 µM applied to the basal (brain side). The protocol: as §6, §1, §2
[14] abbreviates: bEND.3, 1 mM pABA 5 days, ratio to citrate synthase.
Setting [15] is: pABA treated (1 mM; 5 days) bEnd.3.

On to `Cc1c(C)c2c(c(C)c1O)CCC(C)(C(=O)O)O2` (stereo not drawn) [Trolox], for which the “Effect on Basal to Apical transport of CoQ10” value in [1] (control bEnd.3) is on record as “increased Basal to Apical transport of CoQ10”. Also, the “Effect on B to A transport of CoQ10” value in data set [1] was “enhanced B to A transport”.
For `N#CC(C#N)=NNc1ccc(OC(F)(F)F)cc1` [FCCP], in [2], the “Permeability to FITC-dextran” value is listed as “doubled”.
With `C=C(C)[C@H]1Cc2c(ccc3c2O[C@@H]2COc4cc(OC)c(OC)cc4[C@@H]2C3=O)O1` [rotenone], the “Permeability to FITC-dextran” value in data set [2] is listed as “doubled”.
For the molecule `COC1=C(OC)C(=O)C(CCCCCCCCCCO)=C(C)C1=O` [idebenone], in data set [1], the Direction of transport result is “transport toward the brain side (A to B) greater than efflux to blood (B to A)”; the “Permeability (Papp) compared to CoQ10, A to B direction” value is given as 280 ×; the “Permeability (Papp) compared to CoQ10, B to A direction” value is recorded as 150 ×. Besides, the LogP entry in data set [3] was “less than 5”.
Regarding `Nc1ccc(C(=O)O)cc1` [pABA, para-aminobenzoic acid], the “Depletion of cellular CoQ10 relative to controls” value came out at 36% in data set [4] (1 mM pABA 5 days, n = 4) and 43% in data set [5] (bEnd.3, 1 mM pABA 5 days, n = 4). Also, the “Cellular CoQ10, % of control” value in [4] (pABA 1 mmol/L 5 days) is reported as 36 % of control; in [5] (bEnd.3, pABA 1 mmol/L 5 days), 57 % of control. Besides, the Cell viability result in data set [6] was “no change in cell viability”. In addition, the “Decrease in MRC complex I activity” value in data set [7] (setting [14]) is reported as 68%. Moreover, in data set [7] (bEnd.3, pABA 1 mmol/L 5 days), the “MRC complex I activity, % of control” value is 32 % of control. Besides, the “Decrease in MRC complex II-III activity” value in data set [8] (setting [14]) worked out at 72%. Also, the “MRC complexes II-III activity, % of control” value in data set [8] (bEnd.3, pABA 1 mmol/L 5 days) is on record as 28 % of control. In addition, the “MRC complex IV activity, % of control” value in data set [9] is 80 % of control. Further, the Citrate synthase activity result in [10] is “no significant change”. For the same molecule, the “Transendothelial electrical resistance (TEER)” value in data set [11] is recorded as 49 ± 9 Ω · cm^2. Moreover, the Claudin-5 localisation entry in [12] is “re-location of claudin-5 tight junction protein away from the cell membrane”.
Take `CCCCCCC1CCCC1=NNC(N)=S` (stereo not drawn) [BLT-1, blocker of lipid transport-1]: in data set [1] (control bEnd.3), the “Effect on “net” transport of CoQ10” value is recorded as ““net” −ve transport” and the “A to B CoQ10 transport, % of control” value is listed as 44 % of control. In [1] (setting [15]), the “Effect on “net” transport of CoQ10” value was “no significant effect” and the “Apical to Basal CoQ10 transport, % of control” value (“Apical … % of control” for short) is given as “no effect”.
For `CC[C@H]1/C=C/C=C/C[C@@H](C)[C@H](O)[C@@](C)(O)C(=O)[C@@H](C)[C@H](O)[C@@H](C)C(=O)[C@@H](C)[C@H](O)[C@@H](C)/C=C/C(=O)O[C@@H]2[C@H](C)[C@H](CC1)O[C@]1(CC[C@H](C)[C@H](C[C@@H](C)O)O1)[C@H]2C` [oligomycin], in [2], the “Permeability to FITC-dextran” value is reported as “doubled”.
`O=C(c1ccc(Cl)cc1)N(Cc1ccccc1)C1CCCCC1` [FPS-ZM1]: in data set [1] (control bEnd.3), the “Effect on “net” transport of CoQ10” value is given as ““net” −ve transport” and the “A to B CoQ10 transport, % of control” value is listed as 50 % of control. Moreover, in data set [1] (setting [15]), the “Effect on “net” transport of CoQ10” value is “abolished “net” A to B transport” and the “Apical … % of control” value is reported as 45 % of control.
`Cc1c(C)c2c(c(C)c1O)CC[C@@](C)(CCC[C@H](C)CCC[C@H](C)CCCC(C)C)O2` [α-tocopherol]: the “Effect on Basal to Apical transport of CoQ10” value in [1] (control bEnd.3) is given as “increased Basal to Apical transport of CoQ10”. Further, the “Effect on B to A transport of CoQ10” value in data set [1] was “enhanced B to A transport”.

B1: receptor-associated protein (protein, UniProt P30533 35-357, looked up)
Alpha-2-macroglobulin …: YSREKNQPKPSPKRESGEEFRMEKLNQLWEKAQRLHLPPVRLAELHADLKIQERDELAWKKLKLDGLDEDGEKEARLIRNLNVILAKYGLDGKKDARQVTSNSLSGTQEDGLDDPRLEKLWHKAKTSGKFSGEELDKLWREFLHHKEKVHEYNVLLETLSRTEEIHENVISPSDLSDIKGSVLHSRHTELKEKLRSINQGLDRLRRVSHQGYSTEAEFEEPRVIDLWDLAQSANLTDKELEAFREELKHFEAKIEKHNHYQKQLEIAHEKLRHAESVGDGERVSRSREKHALLEGRTKELGYTVKKHLQDLSGRISRARHNEL
As to B1, in data set [13], the “Effect on B-to-A CoQ10 efflux” value is recorded as “inhibited the B-to-A efflux”. In addition, in [1] (control bEnd.3), the “Effect on “net” transport of CoQ10” value was ““net” +ve transport toward the brain side (A to B)”. Further, in data set [1] (setting [15]), the “Effect on “net” transport of CoQ10” value was “enhanced “net” +ve transport toward the brain side” and the “Apical … % of control” value was 164 % of control.
